One molecule from ChEMBL document CHEMBL5614387, “Discovery of 2,4,6-trisubstituted pyrimidine derivatives as novel potent HIV-1 NNRTIs by exploiting the tolerant region II of the NNIBP” (Eur J Med Chem, 2024) can be followed below.

Series [1] deals with Human immunodeficiency virus 1. The experiment in a line: Antiviral activity against HIV-1 harboring RT F227L/V106A mutant infected in human MT4 cells assessed as protection against virus-induced cytopathic effect by MTT assay. It is filed as functional, organism-based. Particulars: Human immunodeficiency virus 1, MT4. Background: Damage to the host cells serves as the signal in cytopathic effect assays.

In series [2] the test system is Human immunodeficiency virus 1. The experiment in a line: Antiviral activity against HIV-1 harboring RT RES056 mutant infected in human MT4 cells assessed as protection against virus-induced cytopathic effect by MTT assay. To be noted: Human immunodeficiency virus 1, MT4. It is filed as functional, organism-based.
In series [3] the test system is Human immunodeficiency virus 1. The experiment in a line: Antiviral activity against HIV-1 harboring RT Y181C mutant infected in human MT4 cells assessed as protection against virus-induced cytopathic effect by MTT assay. To be noted: Human immunodeficiency virus 1, MT4. It is filed as functional, organism-based.
The subject of series [4] is Human immunodeficiency virus 1. The experiment in a line: Antiviral activity against HIV-1 harboring RT K103N mutant infected in human MT4 cells assessed as protection against virus-induced cytopathic effect by MTT assay. It is filed as functional, organism-based. Particulars: Human immunodeficiency virus 1, MT4.
Series [5] is described as follows: Selectivity index, ratio of CC50 for human MT4 cells to EC50 for wild-type HIV-1 IIIB infected in human MT4 cells. It is filed as toxicity, cell-based. Particulars: read-out: Ratio CC50/EC50.
Series [6] has as its system Human immunodeficiency virus 1. The experiment in a line: Antiviral activity against HIV-1 harboring RT E138K mutant infected in human MT4 cells assessed as protection against virus-induced cytopathic effect by MTT assay. It is filed as functional, organism-based. To be noted: Human immunodeficiency virus 1, MT4.
For series [7], the system named is Human immunodeficiency virus 1. The experiment in a line: Antiviral activity against HIV-1 harboring RT L100I mutant infected in human MT4 cells assessed as protection against virus-induced cytopathic effect by MTT assay. It is filed as functional, organism-based. Particulars: Human immunodeficiency virus 1, MT4.
Series [8] can be described thus: Cytotoxicity against human MT4 cells assessed as reduction in cell viability by MTT assay. It is filed as toxicity, cell-based. Background: Tetrazolium assays rely on reduction of a dye to a coloured formazan, in cell work by metabolically active cells.
The test system of series [9] is Human immunodeficiency virus 1. Description: Antiviral activity against HIV-1 harboring RT Y188L mutant infected in human MT4 cells assessed as protection against virus-induced cytopathic effect by MTT assay. It is filed as functional, organism-based. Particulars: Human immunodeficiency virus 1, MT4.
Series [10] relates to Human immunodeficiency virus 1. Description: Antiviral activity against wild-type HIV-1 IIIB infected in human MT4 cells assessed as protection against virus-induced cytopathic effect by MTT assay. It is filed as functional, organism-based. Particulars: Human immunodeficiency virus 1, IIIB.
The target of series [11] is Human immunodeficiency virus type 1 reverse transcriptase (Human immunodeficiency virus 1, UniProt Q72547). Description: Inhibition of wild-type HIV-1 reverse transcriptase incubated for 1 hr in presence of biotin-dUTP by ELISA. (ELISA stands for enzyme-linked immunosorbent assay.)

Regarding `Cc1cc(C#N)cc(C)c1Oc1cc(-c2ccsc2)nc(NC2CCN(Cc3ccc(S(N)(=O)=O)cc3)CC2)n1`, the 50% effective concentration (EC50) (commonly the concentration giving half of the maximal effect) in [1] is 61.6 nM; in series [2] it was 311 nM; in series [3], 37.1 nM; in series [4] it was 4.61 nM; in series [6], 42.4 nM; in series [7], 9.83 nM. The values for the concentration giving a half-maximal response (EC50) in series [9] and in series [10] were 46.4 nM and 4.45 nM, respectively. Besides, in series [5], the selectivity ratio is 3330. Moreover, the CC50 (commonly the concentration at which the toxic effect on the cells reaches its halfway point) in series [8] was found to be 14800 nM. Also, the IC50 – broadly, the point on the concentration scale where inhibition reaches its midpoint – in series [11] came out at 236 nM.
